Assay results as given in patent US20260217732A1, “WRN INHIBITOR” (SUZHOU PUHE BIOPHARMA CO., LTD., priority 2022, published 2026).

What follows are molecules tested on SW48 colorectal cancer cells (assay: 2D antiproliferation on MSI-H SW48 cells, CTG, 5 days). Details: Homo sapiens, 120 h; SW48 MSI-H, 5 days.
Type: cell-based
Description: The molecules of the present disclosure were tested for their anti-proliferative activity on MSI-H tumor cells.
SW48 colorectal cancer cells with MSI were cultured in a RMI1640 medium containing 10% FBS and 1% penicillin-streptomycin, and the mixture was cultured in a 37° C., 5% CO2 incubator. 40 μL of cell suspension was added to each well of a 384-well microplate. […] of compounds with different concentrations were added to each well using Echo, and the mixtures were cultured in a 37° C., 5% CO2 incubator for 5 days. 40 μL of CTG solution (Promega, Cat No. G7573) was added to each well and incubated in a 37° C., 5% CO2 incubator in the dark for 30 minutes. The luminescence value was read using an Envision multi-function microplate reader (Perkin Elmer, catalog number Envision 2104). The optical signal is proportional to the amount of ATP in the system, while the ATP content directly characterizes the number of viable cells in the system.
Molecule `CCc1c(N2CCN(C(=O)c3cc(C)ncn3)CC2)c(=O)n2nc(-c3cc4c(s3)COC4)nc2n1CC(=O)Nc1ccc(C(F)(F)F)cc1Cl` [A2] has an IC50 of 848 nM. `CCc1c(N2CCN(C(=O)c3ncnc(C)c3O)CC2)c(=O)n2nc(-c3ccc(=O)n(C)c3)nc2n1CC(=O)Nc1ccc(C(F)(F)F)cc1Cl` [A3, reference compound] gave an IC50 of 2000 nM. `CCc1c(N2CCN(C(=O)c3ncccc3O)CC2)c(=O)n2nc(C3=CCS(=O)(=O)CC3)nc2n1CC(=O)Nc1ccc(C(F)(F)F)cc1Cl` [P6] showed an IC50 of 2060 nM. `CCc1c(N2CCN(C(=O)c3ncnc(C)c3O)CC2)c(=O)n2nc(-c3cc4c(s3)COCC4)nc2n1CC(=O)Nc1ccc(C(F)(F)F)cc1Cl` [P40] gave an IC50 of 113 nM. Work on `CCc1c(N2CCN(C(=O)c3ncnc(C)c3O)CC2)c(=O)n2nc(-c3ncc(CO)s3)nc2n1CC(=O)Nc1ccc(C(F)(F)F)cc1Cl` [P43] yielded an IC50 of 593 nM. `CCc1c(N2CCN(C(=O)c3ncnc(C)c3O)CC2)c(=O)n2nc(-c3ccn4nccc4c3)nc2n1CC(=O)Nc1ccc(C(F)(F)F)cc1C` [P48] was tested, and the IC50 was 32 nM. `CCc1c(N2CCN(C(=O)c3ncnc(C)c3O)CC2)c(=O)n2nc(-c3cnn(S(C)(=O)=O)c3)nc2n1CC(=O)Nc1ccc(C(F)(F)F)cc1Cl` [P49] was tested, and the IC50 was 574 nM. Work on `CCc1c(N2CCN(C(=O)c3ncnc(C)c3O)CC2)c(=O)n2nc(-c3cc4cn[nH]c4s3)nc2n1CC(=O)Nc1ccc(C(F)(F)F)cc1F` [P51] yielded an IC50 of 242 nM. Molecule `CCc1c(N2CC3CC(C2)N3C(=O)c2ncnc(C)c2O)c(=O)n2nc(-c3cc4c(s3)COC4)nc2n1CC(=O)Nc1ccc(C(F)(F)F)cc1C` [P54] has an IC50 of 2140 nM. `CCc1c(N2CCN(C(=O)c3ncnc(C)c3O)C3(CC3)C2)c(=O)n2nc(-c3cc4c(s3)COC4)nc2n1CC(=O)Nc1ccc(C(F)(F)F)cc1C` [P55] gave an IC50 of 672 nM. In the case of `CCc1c(N2CCN(C(=O)c3ncnc(C)c3O)CC2)c(=O)n2nc(-c3cc4c(s3)COC4)nc2n1CC(=O)Nc1ccc(C(F)(F)F)c2sccc12` [P56], the IC50 is reported as 36 nM. `CCc1c(N2CCN(C(=O)c3ncnc(C)c3O)CC2)c(=O)n2nc(-c3cc4c(s3)COC4)nc2n1CC(=O)Nc1ccc(-c2cccnc2)cc1Cl` [P61] was tested, and the IC50 was 8850 nM. With `CCc1c(N2CCN(C(=O)c3ncnc(C)c3O)CC2)c(=O)n2nc(-c3cn4cncc4s3)nc2n1CC(=O)Nc1ccc(C(F)(F)F)cc1C` [P64] the IC50 was 530 nM. Work on `[2H]C([2H])([2H])c1ncnc(C(=O)N2CCN(c3c(CC)n(CC(=O)Nc4ccc(C(F)(F)F)cc4Cl)c4nc(-c5cc6c(s5)COC6)nn4c3=O)CC2)c1O` [P68] yielded an IC50 of 28 nM. Work on `[2H]C1([2H])N(C(=O)c2ncnc(C)c2O)C([2H])([2H])C([2H])([2H])N(c2c(CC)n(CC(=O)Nc3ccc(C(F)(F)F)cc3C)c3nc(-c4cc5c(s4)COC5)nn3c2=O)C1([2H])[2H]` [P70] yielded an IC50 of 34 nM.

The molecules below were run on HT-29 colorectal cancer cells (assay: 2D antiproliferation on MSS HT-29 cells, CTG, 5 days). Details: Homo sapiens, 120 h, HT-29 MSS.
Type: cell-based
Description: The molecules of the invention were tested for their anti-proliferative activities on MSS tumor cells.
HT-29 colorectal cancer cells with MSS were cultured in a McCoy's 5A medium containing 10% FBS and 1% penicillin-streptomycin in a 37° C., 5% CO2 constant temperature incubator. 40 μL of cell suspension was added to each well of a 384-well microplate. […] of compounds with different concentrations were added to each well using Echo. The mixtures were cultured in a 37° C., 5% CO2 constant temperature incubator for 5 days. 40 μL of CTG solution (Promega, Cat No. G7573) was added to each well, and the mixture was incubated in a 37° C., 5% CO2 constant temperature incubator for 30 minutes in the dark. The luminescence value was read using an Envision multi-function microplate reader (Perkin Elmer, catalog number Envision 2104). The optical signal is proportional to the amount of ATP in the system, while the ATP content directly characterizes the number of viable cells in the system.
`CCc1c(N2CCN(C(=O)c3ncccc3O)CC2)c(=O)n2nc(C3=CCS(=O)(=O)CC3)nc2n1CC(=O)Nc1ccc(C(F)(F)F)cc1Cl` [P6] gave an IC50 of over 10000 nM.
